Source: the supplement of paper PMC10307832

Tests used:
Assay in all cases: relative viability (nuclei count vs DMSO), 5 days (fraction); higher = more cells survive
[1] = compound: CCc1cnn2c(NCc3ccc[n+]([O-])c3)cc(N3CCCC[C@H]3CCO)nc12 [Dinaciclib] + Cc1nc(NC(=O)N2CCC[C@H]2C(N)=O)sc1-c1ccnc(C(C)(C)C(F)(F)F)c1 [Alpelisib] (partner 2 µM)
In short: (§1)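 Five library-drug doses in √10 steps were combined with a fixed anchor-drug dose, or a single drug was given alone, by pin tool to lung cancer cell lines in 1536-well plates the day after seeding. Nuclei were stained and counted after 5 days. Relative viability is the nuclei count in treated wells over that in vehicle wells, taken as the median of duplicate plates.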

[2] = compound: CCc1cnn2c(NCc3ccc[n+]([O-])c3)cc(N3CCCC[C@H]3CCO)nc12 [Dinaciclib] + O=C(c1cc(Cc2n[nH]c(=O)c3ccccc23)ccc1F)N1CCN(C(=O)C2CC2)CC1 [Olaparib] (partner 8 µM)
In short: as §1

[3] = compound: CCc1cnn2c(NCc3ccc[n+]([O-])c3)cc(N3CCCC[C@H]3CCO)nc12 [Dinaciclib] + Nc1nc2[nH]cc(CCc3ccc(C(=O)N[C@@H](CCC(=O)O)C(=O)O)cc3)c2c(=O)[nH]1 [Pemetrexed] (partner 0.2 µM)
In short: as §1

[4] = compound: CCc1cnn2c(NCc3ccc[n+]([O-])c3)cc(N3CCCC[C@H]3CCO)nc12 [Dinaciclib] + Nc1ncn([C@H]2C[C@H](O)[C@@H](CO)O2)c(=O)n1 [Decitabine] (partner 2 µM)
In short: as §1

[5] = compound: CCc1cnn2c(NCc3ccc[n+]([O-])c3)cc(N3CCCC[C@H]3CCO)nc12 [Dinaciclib] + O=C(CCCCCCC(=O)Nc1ccccc1)NO [Vorinostat] (partner 1 µM)
In short: as §1

HCC-827
relative viability ([1]; first compound 0.009487 µM): 0.879 | relative viability ([1]; first compound 0.03 µM): 0.601 | relative viability ([1]; first compound 0.09487 µM): 0.126 | relative viability ([1]; first compound 0.3 µM): 0.123 | relative viability ([2]; first compound 0.009487 µM): 0.631 | relative viability ([2]; first compound 0.03 µM): 0.123 | relative viability ([2]; first compound 0.09487 µM): 0.116 | relative viability ([2]; first compound 0.3 µM): 0.117 | relative viability ([3]; first compound 0.009487 µM): 0.27 | relative viability ([3]; first compound 0.03 µM): 0.129 | relative viability ([3]; first compound 0.09487 µM): 0.122 | relative viability ([3]; first compound 0.3 µM): 0.13 | relative viability ([4]; first compound 0.009487 µM): 0.351 | relative viability ([4]; first compound 0.03 µM): 0.131 | relative viability ([4]; first compound 0.09487 µM): 0.12 | relative viability ([4]; first compound 0.3 µM): 0.137 | relative viability ([5]; first compound 0.009487 µM): 1 | relative viability ([5]; first compound 0.03 µM): 0.747 | relative viability ([5]; first compound 0.09487 µM): 0.123 | relative viability ([5]; first compound 0.3 µM): 0.159

HCC-78
relative viability ([1]; first compound 0.009487 µM): 0.298 | relative viability ([1]; first compound 0.03 µM): 0.202 | relative viability ([1]; first compound 0.09487 µM): 0.115 | relative viability ([1]; first compound 0.3 µM): 0.118 | relative viability ([2]; first compound 0.009487 µM): 0.713 | relative viability ([2]; first compound 0.03 µM): 0.198 | relative viability ([2]; first compound 0.09487 µM): 0.168 | relative viability ([2]; first compound 0.3 µM): 0.202 | relative viability ([3]; first compound 0.009487 µM): 0.895 | relative viability ([3]; first compound 0.03 µM): 0.91 | relative viability ([3]; first compound 0.09487 µM): 0.858 | relative viability ([3]; first compound 0.3 µM): 0.927 | relative viability ([4]; first compound 0.009487 µM): 0.612 | relative viability ([4]; first compound 0.03 µM): 0.32 | relative viability ([4]; first compound 0.09487 µM): 0.206 | relative viability ([4]; first compound 0.3 µM): 0.205 | relative viability ([5]; first compound 0.009487 µM): 0.457 | relative viability ([5]; first compound 0.03 µM): 0.372 | relative viability ([5]; first compound 0.09487 µM): 0.229 | relative viability ([5]; first compound 0.3 µM): 0.186

UMC-11
relative viability ([1]; first compound 0.009487 µM): 0.285 | relative viability ([1]; first compound 0.03 µM): 0.147 | relative viability ([1]; first compound 0.09487 µM): 0.135 | relative viability ([1]; first compound 0.3 µM): 0.158 | relative viability ([2]; first compound 0.009487 µM): 0.176 | relative viability ([2]; first compound 0.03 µM): 0.157 | relative viability ([2]; first compound 0.09487 µM): 0.146 | relative viability ([2]; first compound 0.3 µM): 0.165 | relative viability ([3]; first compound 0.009487 µM): 0.411 | relative viability ([3]; first compound 0.03 µM): 0.18 | relative viability ([3]; first compound 0.09487 µM): 0.189 | relative viability ([3]; first compound 0.3 µM): 0.146 | relative viability ([4]; first compound 0.009487 µM): 0.531 | relative viability ([4]; first compound 0.03 µM): 0.197 | relative viability ([4]; first compound 0.09487 µM): 0.2 | relative viability ([4]; first compound 0.3 µM): 0.169 | relative viability ([5]; first compound 0.009487 µM): 0.229 | relative viability ([5]; first compound 0.03 µM): 0.174 | relative viability ([5]; first compound 0.09487 µM): 0.167 | relative viability ([5]; first compound 0.3 µM): 0.167

NCI-H1975
relative viability ([1]; first compound 0.009487 µM): 0.473 | relative viability ([1]; first compound 0.03 µM): 0.118 | relative viability ([1]; first compound 0.09487 µM): 0.112 | relative viability ([1]; first compound 0.3 µM): 0.147 | relative viability ([2]; first compound 0.009487 µM): 0.702 | relative viability ([2]; first compound 0.03 µM): 0.26 | relative viability ([2]; first compound 0.09487 µM): 0.151 | relative viability ([2]; first compound 0.3 µM): 0.114 | relative viability ([3]; first compound 0.009487 µM): 0.275 | relative viability ([3]; first compound 0.03 µM): 0.288 | relative viability ([3]; first compound 0.09487 µM): 0.146 | relative viability ([3]; first compound 0.3 µM): 0.16 | relative viability ([4]; first compound 0.009487 µM): 0.327 | relative viability ([4]; first compound 0.03 µM): 0.176 | relative viability ([4]; first compound 0.09487 µM): 0.135 | relative viability ([4]; first compound 0.3 µM): 0.143 | relative viability ([5]; first compound 0.009487 µM): 0.677 | relative viability ([5]; first compound 0.03 µM): 0.39 | relative viability ([5]; first compound 0.09487 µM): 0.144 | relative viability ([5]; first compound 0.3 µM): 0.15

COR-L23
relative viability ([1]; first compound 0.009487 µM): 0.637 | relative viability ([1]; first compound 0.03 µM): 0.0835 | relative viability ([1]; first compound 0.09487 µM): 0.0694 | relative viability ([1]; first compound 0.3 µM): 0.0603 | relative viability ([2]; first compound 0.009487 µM): 0.356 | relative viability ([2]; first compound 0.03 µM): 0.112 | relative viability ([2]; first compound 0.09487 µM): 0.0765 | relative viability ([2]; first compound 0.3 µM): 0.0765 | relative viability ([3]; first compound 0.009487 µM): 0.184 | relative viability ([3]; first compound 0.03 µM): 0.21 | relative viability ([3]; first compound 0.09487 µM): 0.112 | relative viability ([3]; first compound 0.3 µM): 0.093 | relative viability ([4]; first compound 0.009487 µM): 0.388 | relative viability ([4]; first compound 0.03 µM): 0.114 | relative viability ([4]; first compound 0.09487 µM): 0.0933 | relative viability ([4]; first compound 0.3 µM): 0.0952 | relative viability ([5]; first compound 0.009487 µM): 0.41 | relative viability ([5]; first compound 0.03 µM): 0.0812 | relative viability ([5]; first compound 0.09487 µM): 0.087 | relative viability ([5]; first compound 0.3 µM): 0.0797

SW 1573
relative viability ([1]; first compound 0.009487 µM): 0.659 | relative viability ([1]; first compound 0.03 µM): 0.432 | relative viability ([1]; first compound 0.09487 µM): 0.0931 | relative viability ([1]; first compound 0.3 µM): 0.106 | relative viability ([2]; first compound 0.009487 µM): 0.224 | relative viability ([2]; first compound 0.03 µM): 0.0736 | relative viability ([2]; first compound 0.09487 µM): 0.062 | relative viability ([2]; first compound 0.3 µM): 0.0659 | relative viability ([3]; first compound 0.009487 µM): 0.345 | relative viability ([3]; first compound 0.03 µM): 0.0723 | relative viability ([3]; first compound 0.09487 µM): 0.07 | relative viability ([3]; first compound 0.3 µM): 0.0635 | relative viability ([4]; first compound 0.009487 µM): 0.314 | relative viability ([4]; first compound 0.03 µM): 0.0932 | relative viability ([4]; first compound 0.09487 µM): 0.065 | relative viability ([4]; first compound 0.3 µM): 0.0758 | relative viability ([5]; first compound 0.009487 µM): 0.444 | relative viability ([5]; first compound 0.03 µM): 0.071 | relative viability ([5]; first compound 0.09487 µM): 0.0779 | relative viability ([5]; first compound 0.3 µM): 0.0742

NCI-H2126
relative viability ([1]; first compound 0.009487 µM): 0.732 | relative viability ([1]; first compound 0.03 µM): 0.399 | relative viability ([1]; first compound 0.09487 µM): 0.209 | relative viability ([1]; first compound 0.3 µM): 0.196 | relative viability ([2]; first compound 0.009487 µM): 0.89 | relative viability ([2]; first compound 0.03 µM): 0.449 | relative viability ([2]; first compound 0.09487 µM): 0.186 | relative viability ([2]; first compound 0.3 µM): 0.169 | relative viability ([3]; first compound 0.009487 µM): 0.695 | relative viability ([3]; first compound 0.03 µM): 0.495 | relative viability ([3]; first compound 0.09487 µM): 0.198 | relative viability ([3]; first compound 0.3 µM): 0.192 | relative viability ([4]; first compound 0.009487 µM): 0.524 | relative viability ([4]; first compound 0.03 µM): 0.393 | relative viability ([4]; first compound 0.09487 µM): 0.187 | relative viability ([4]; first compound 0.3 µM): 0.176 | relative viability ([5]; first compound 0.009487 µM): 0.817 | relative viability ([5]; first compound 0.03 µM): 0.345 | relative viability ([5]; first compound 0.09487 µM): 0.176 | relative viability ([5]; first compound 0.3 µM): 0.194
